From PubChem BioAssay (NCI) come the findings set out here.

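Where inhibition never reached the appropriate level, the endpoint shown equals the highest concentration tested. Otherwise, values were interpolated linearly from a five-concentration, 48-hour dose response in 96-well plates. GI50 is the concentration that inhibits growth by half. Definition used: TGI = concentration required for complete inhibition of growth.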

Among the test systems are CAKI-1 renal; T-47D breast; DU-145 prostate; IGROV1 ovarian; OVCAR-3 ovarian; SW-620 colon; HCC-2998 colon; SK-MEL-28 melanoma; HOP-92 NSCLC; A498 renal.
What all share (test): DTP human tumour cell line panel, 48 h

`C/C(Cc1ccc(Cl)cc1)=C(/c1ccc(Cl)cc1)c1ccc(OCCN(C)C)cc1`: the GI50 with CAKI-1 renal was 4.63 µM; in the assay with T-47D breast it was 3.83 µM; in the assay on DU-145 prostate it was 4.74 µM; in the assay with IGROV1 ovarian it was 3.73 µM; with OVCAR-3 ovarian it was 4.53 µM; with SW-620 colon, 1.67 µM. The figures for the GI50 in the assay on HCC-2998 colon, in the assay with SK-MEL-28 melanoma and in the assay on HOP-92 NSCLC were 2.03 µM, 4.85 µM and 1.62 µM, respectively. Moreover, the TGI with CAKI-1 renal amounted to 8.98 µM; with T-47D breast, 9.92 µM; in the assay with DU-145 prostate, 9.44 µM; with IGROV1 ovarian, 8.56 µM; in the assay on OVCAR-3 ovarian, 9.2 µM; in the assay on SW-620 colon it was 6.1 µM. Also, the total growth inhibition concentration (TGI) with HCC-2998 colon worked out at 6.7 µM; with SK-MEL-28 melanoma, 9.29 µM; in the assay on HOP-92 NSCLC, 6.48 µM.
With `CC/C(C)=C1\OC(=O)C(C)C(O)C(Cc2cccnc2)NC(=O)C(NC(=O)c2ncccc2O)C(C)OC1=O` (configuration not stated), the TGI in the assay on CAKI-1 renal, with A498 renal, in the assay with T-47D breast, with DU-145 prostate, in the assay with IGROV1 ovarian and with OVCAR-3 ovarian was more than 100 µM in each case. Further, the TGI with SW-620 colon, with HCC-2998 colon and in the assay on SK-MEL-28 melanoma was more than 100 µM throughout.
Take `Cn1c(=S)c2[nH]c(SCCN3CCCC3)nc2n(C)c1=O`: the TGI in the assay with CAKI-1 renal, with A498 renal, in the assay on T-47D breast, in the assay on DU-145 prostate, in the assay on IGROV1 ovarian and in the assay on OVCAR-3 ovarian was more than 100 µM in each case. Moreover, the TGI with SW-620 colon, in the assay on SK-MEL-28 melanoma and with HOP-92 NSCLC was more than 100 µM each time.
Consider `C=C1C(=O)O[C@H]2[C@H]1CC/C(COC(=O)c1ccc(C#N)cc1)=C\CC[C@@]1(C)O[C@@H]21`, for which the GI50 in the assay with A498 renal is 15.4 µM; with T-47D breast it was 1.74 µM; in the assay with DU-145 prostate, 1.5 µM; with IGROV1 ovarian it was 1.38 µM; in the assay on OVCAR-3 ovarian, 1.36 µM; in the assay with SW-620 colon it was 1.27 µM. The GI50 with HCC-2998 colon is 4.1 µM; in the assay with SK-MEL-28 melanoma, 2.2 µM; in the assay with HOP-92 NSCLC it was 1.59 µM. In addition, the TGI stood at 30 µM in the assay on A498 renal; 5.24 µM in the assay with T-47D breast; 2.83 µM with DU-145 prostate; 4.27 µM in the assay with IGROV1 ovarian; 2.75 µM with OVCAR-3 ovarian; 2.88 µM in the assay on SW-620 colon. For the same compound, the results for the TGI with HCC-2998 colon, in the assay with SK-MEL-28 melanoma and in the assay with HOP-92 NSCLC were 14.3 µM, 4.82 µM and 3.8 µM, respectively.
Take `COc1cnc2c(c1)C(=O)c1c-2n(CCCN2CCCC2)c(=O)c2cc(F)ccc12`: the GI50 in the assay with A498 renal is 0.344 µM; with T-47D breast, 0.218 µM; in the assay on DU-145 prostate it was 0.211 µM; in the assay on IGROV1 ovarian, 0.363 µM; in the assay on OVCAR-3 ovarian, 0.307 µM; in the assay on SW-620 colon, 0.199 µM. For the same compound, the GI50 was 2.65 µM with HCC-2998 colon, 2.49 µM in the assay on SK-MEL-28 melanoma and 0.531 µM in the assay with HOP-92 NSCLC. The TGI with A498 renal came out at 1.65 µM; with T-47D breast, 10.2 µM; in the assay on DU-145 prostate it was 1.34 µM; with IGROV1 ovarian, 3.34 µM; in the assay with OVCAR-3 ovarian, 1.51 µM; with SW-620 colon, 2.27 µM. Moreover, the TGI in the assay with HCC-2998 colon came to 20.7 µM; in the assay on SK-MEL-28 melanoma, 14.7 µM; in the assay on HOP-92 NSCLC, 7.8 µM.
For `CNC1C(O)C(OC2C(N)CC(N)C(OC3OC(C(C)O)C(O)C(O)C3N)C2O)OCC1(C)O` (configuration not stated), the TGI in the assay with CAKI-1 renal, in the assay on A498 renal, with T-47D breast, in the assay with DU-145 prostate, in the assay with IGROV1 ovarian and in the assay on OVCAR-3 ovarian was more than 100 µM throughout. The TGI in the assay with SW-620 colon, with HCC-2998 colon and with SK-MEL-28 melanoma was more than 100 µM each time.
For `CCOC(=O)Nc1ccc(-c2nc(-c3cccc(OC)c3)c(-c3ccnc(Br)c3)[nH]2)cc1`, the GI50 in the assay on A498 renal is 1.94 µM; in the assay with T-47D breast, 1.96 µM; in the assay with DU-145 prostate, 3.24 µM; with IGROV1 ovarian it was 2.69 µM; with OVCAR-3 ovarian, 2.82 µM; with SW-620 colon it was 3.19 µM. Further, the GI50 in the assay with HCC-2998 colon is 2.25 µM; with SK-MEL-28 melanoma it was 2.8 µM; in the assay with HOP-92 NSCLC it was 2.36 µM. Also, the total growth inhibition concentration (TGI) in the assay with A498 renal is 7.06 µM; with T-47D breast, 6.47 µM; with DU-145 prostate, more than 100 µM; in the assay with IGROV1 ovarian, 9.03 µM; in the assay with OVCAR-3 ovarian, 8.44 µM; in the assay on SW-620 colon it was more than 100 µM. For the same compound, the total growth inhibition concentration (TGI) with HCC-2998 colon is 6.23 µM; in the assay with SK-MEL-28 melanoma it was more than 100 µM; in the assay with HOP-92 NSCLC it was 7.69 µM.
With `N#Cc1ccc(C(c2ccc(C#N)cc2)n2cncn2)cc1`, the GI50 in the assay with CAKI-1 renal is more than 5000 µM; with T-47D breast it was more than 5000 µM; in the assay with DU-145 prostate, more than 5000 µM; in the assay with IGROV1 ovarian, 47.5 µM; in the assay on OVCAR-3 ovarian it was more than 5000 µM; in the assay on SW-620 colon it was more than 5000 µM. Besides, the GI50 in the assay with HCC-2998 colon is more than 5000 µM. Besides, the TGI in the assay with CAKI-1 renal, with A498 renal, with T-47D breast, in the assay with DU-145 prostate, in the assay on OVCAR-3 ovarian and with SW-620 colon was more than 5000 µM throughout. Further, the TGI with HCC-2998 colon and in the assay with SK-MEL-28 melanoma was more than 5000 µM in each case.
As for `O=C(Oc1ccccc1Cl)c1ccccc1Nc1ccnc(C(F)(F)F)c1`, the GI50 was 0.599 µM with CAKI-1 renal; 3.92 µM in the assay on A498 renal; 31.2 µM in the assay with T-47D breast; 3.42 µM in the assay with DU-145 prostate; 16.3 µM with IGROV1 ovarian; 0.247 µM in the assay on OVCAR-3 ovarian. For the same compound, the GI50 was 0.15 µM in the assay with SW-620 colon, 2.22 µM in the assay with HCC-2998 colon and 0.271 µM in the assay with HOP-92 NSCLC. Besides, the TGI in the assay with CAKI-1 renal was 1.76 µM; in the assay on A498 renal, 17.6 µM; in the assay on T-47D breast it was more than 100 µM; in the assay on DU-145 prostate, 13.3 µM; in the assay with IGROV1 ovarian, more than 100 µM; in the assay on OVCAR-3 ovarian it was 0.533 µM. The TGI with SW-620 colon is 20 µM; in the assay on HCC-2998 colon, 5.26 µM; with HOP-92 NSCLC, 13.4 µM.
